Experimental data as given in PubChem BioAssay (NCI).
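Exposure lasted 48 hours, with cells grown in 96-well plates and compounds tested at five concentrations. Definition used: TGI = concentration required for complete inhibition of growth.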

What was measured:
Experiment in all cases: NCI anticancer screen, dose series, 48 h
CCRF-CEM leukemia = system: CCRF-CEM leukemia
HL-60(TB) leukemia = system: HL-60(TB) leukemia
SF-268 CNS = system: SF-268 CNS
OVCAR-5 ovarian = system: OVCAR-5 ovarian
NCI-H23 lung = system: NCI-H23 lung
OVCAR-3 ovarian = system: OVCAR-3 ovarian
SN12C renal = system: SN12C renal
HOP-92 NSCLC = system: HOP-92 NSCLC
786-0 renal = system: 786-0 renal
RXF 393 renal = system: RXF 393 renal
HOP-62 NSCLC = system: HOP-62 NSCLC
SK-OV-3 ovarian = system: SK-OV-3 ovarian
NCI-H226 lung = system: NCI-H226 lung
EKVX NSCLC = system: EKVX NSCLC
UACC-62 melanoma = system: UACC-62 melanoma
A498 renal = system: A498 renal
BT-549 breast = system: BT-549 breast
MDA-MB-435 = system: MDA-MB-435

| Compound | TGI (CCRF-CEM leukemia) [µM] | TGI (HL-60(TB) leukemia) [µM] | TGI (SF-268 CNS) [µM] | TGI (OVCAR-5 ovarian) [µM] | TGI (NCI-H23 lung) [µM] | TGI (OVCAR-3 ovarian) [µM] | TGI (SN12C renal) [µM] | TGI (HOP-92 NSCLC) [µM] | TGI (786-0 renal) [µM] | TGI (RXF 393 renal) [µM] | TGI (HOP-62 NSCLC) [µM] | TGI (SK-OV-3 ovarian) [µM] | TGI (NCI-H226 lung) [µM] | TGI (EKVX NSCLC) [µM] | TGI (UACC-62 melanoma) [µM] | TGI (A498 renal) [µM] | TGI (BT-549 breast) [µM] | TGI (MDA-MB-435) [µM] |
| --- | --- | --- | --- | --- | --- | --- | --- | --- | --- | --- | --- | --- | --- | --- | --- | --- | --- | --- |
| CN1OC2OC(=O)OC2[C@H]1[C@H]1O[C@H](c2ccccc2)OC1(C)c1cc(OC(=O)c2ccccc2)ccc1OC(=O)c1ccccc1 (stereo not given in full) | > 50 | > 50 | > 50 | > 50 | > 50 | > 50 | > 50 | > 50 | > 50 | > 50 | > 50 | > 50 | > 50 | > 50 |  |  |  |  |
| CCCCOC(=O)C1CN2C(=NC1(C(F)(F)F)C(F)(F)F)Sc1ccccc12 (stereo not given) | > 100 | 68.9 | > 100 | > 100 | > 100 | > 100 | > 100 | > 100 | > 100 | 63.4 | > 100 | > 100 | > 100 | > 100 | > 100 | > 100 | > 100 |  |
| OCSc1nn(CO)c(=S)s1 | 55.1 | 54 | 50.5 | > 100 | 40.5 | 48.4 | 49.4 | 41.7 | 58.9 | 34.3 | 45.2 | 92.7 | 92.9 | 89.3 | 34.8 |  |  | 34.3 |
| CCOP(C)(=O)C(Nc1ccc(F)cc1)c1ccc(F)cc1 (stereo not given) | > 100 | > 100 | > 100 | > 100 | > 100 | > 100 | > 100 | > 100 | > 100 | > 100 | > 100 | > 100 | > 100 | > 100 | > 100 | > 100 |  | > 100 |
| O=C(Nc1c(Cl)cc([N+](=O)[O-])cc1Cl)/C(=N\Nc1cccc(Cl)c1)c1c(O)c2ccccc2oc1=O | > 100 | > 100 | > 100 | > 100 | > 100 | > 100 | > 100 |  | > 100 | > 100 | > 100 | > 100 |  | > 100 | > 100 | 91.4 |  |  |
| C/C(=N/N)c1ccc2[nH]c3c(C)cc([N+](=O)[O-])c(C)c3c2c1 | 30.1 | > 100 | 60.4 |  |  | 30.7 | 15.8 |  | 22.2 |  | 20.9 |  | 29.2 | 66.1 |  |  |  |  |
| COC(=O)NN1C(=O)C(=P(c2ccccc2)(c2ccccc2)c2ccccc2)C(C(=O)OC)=C1C | > 100 | > 100 | > 100 |  | > 100 | > 100 | > 100 | 79.5 |  |  |  | > 100 | > 100 | > 100 | > 100 | > 100 |  |  |
| O=C(c1ccccc1)c1c(CNCc2ccccc2)n(C(=O)c2ccccc2)c2ccccc12 | > 100 | 98.7 | > 100 | > 100 | > 100 | 65.7 |  | 82.1 | > 100 |  | > 100 |  | > 100 |  | > 100 |  |  |  |
| COc1cc2c(cc1OC)C(Cc1c3ccccc3cc3ccccc13)N(C)CC2 (stereo not given) | 93 | 31.3 | > 100 | 40.2 | > 85.3 | > 61.1 | > 100 | 35 |  | 32.5 | 48.7 | 84.5 | 60.2 | 96.8 | 40.8 | 43.6 |  |  |
| O=C1NN(c2ccccc2)C(=O)C2C3c4ccccc4C(c4ccccc43)C12 (stereo not given) | > 100 |  | > 100 |  | > 100 | > 100 | > 100 | > 100 | > 100 | > 100 | > 100 | > 100 | > 100 | > 100 | > 100 | > 100 |  | > 100 |
| COc1cc2c(cc1O)C(C)Cc1cc3c(cc1N(C)CC2)OCO3 (stereo not given) | > 46.8 | > 58.8 | 36.2 | 54.9 | 20.3 | 8.83 | 18.3 | 18 | 17.4 | 9.48 | 36.8 | 22.8 | 19.3 | > 34.9 | 12 | 39.5 |  |  |
| CC[C@]12C=CCN3CCC4(c5cc([C@@]6(C(=O)OC)CC7CN(CCc8c6[nH]c6ccccc86)C[C@@H]6CCC[C@H]76)c(OC)cc5N(C)C4[C@](O)(C(=O)OC)C1OC(C)=O)C32 (stereo not given in full) | > 10 | 0.289 | 1.6 | > 10 | 1.42 | 0.337 | > 10 | > 10 | > 10 | 0.554 | 1.31 | > 2.54 | 1.5 | > 3.86 | > 10 | 0.816 |  | 0.0249 |
| O=C(CSc1nnc(-c2ccc(N=Cc3ccc(Cl)cc3)cc2)o1)Nc1cccc(Cl)c1 | > 100 | > 100 | > 100 |  | > 100 |  | > 100 |  | > 100 | > 100 | > 100 | > 100 | > 100 | > 100 | > 100 |  |  |  |
| Cc1cc(N=Nc2ccc(N=Nc3c(O)c(S(=O)(=O)O)cc4cc(S(=O)(=O)O)ccc34)cc2C)ccc1N=Nc1ccc2cc(S(=O)(=O)O)cc(S(=O)(=O)O)c2c1 | > 100 | > 100 | > 100 | > 100 | > 100 | > 100 | > 100 | > 100 |  | > 100 | > 100 | > 100 | > 100 | > 100 | > 100 | > 100 |  |  |
| CCNc1ncnc2n[nH]nc12 | > 100 | > 100 |  |  | > 100 | > 100 | > 100 | > 100 | > 100 | > 100 | > 100 | > 100 | > 100 | > 100 | > 100 | > 100 |  | > 100 |
